Experimental data from patent publication US20080139407A1, “Segment synthesis” (PEPSCAN SYSTEMS B. V., priority 2000, published 2008).
*: point of attachment. BrAc = O=C(CBr)*

Tests used:
[1] = tested on: biotinylated DNA (3′-TATTCTCCGGACGAGTACCGTGAAGGGTC-Biotin-5′); assay: Binding of biotinylated DNA by the construct of two PNAs, detected with streptavidin-horse radish peroxidase and ABTS; conditions: miniwell setup, polypropylene surface
Description: FIG. 10. A) Schematic presentation of a DNA/RNA scan. The constructs are scanned with a labeled protein, for example a regulatory protein, or another DNA or PNA strand (top), or alternatively overlapping peptides are scanned with biotynilated RNA, DNA or PNA (bottom). The oligonucleotide sequences are shown in SEQ ID NOS 661-666, respectively, in order of appearance. B) Working example with biotinylated DNA on construct of two PNA's.
Chemistry in short: Detection of the binding of Biotinylated DNA by the construct of two PNAs. In miniwell setup the polypropylene (PP) surface of the miniwells was functionalized with carboxyl groups using gamma irradiation (12 kGy) in the presence of CuSO4 and 6% acrylic acid. Subsequently the PP surface was amino group functionalized (using BocHMDA/DCC/HOBt with subsequent removal of the Boc group with TFA). Next the amino groups were converted in thiol groups by coupling of Fmoc-Cys-(Trt) using DCC/HOBt, removal of the Fmoc group, acetylation of the amino group followed by removal of the Trt by TFA/triethyl silan. To this PP surface functionalized with thiol groups a PNA (PNA1) was coupled which contains N-terminal a bromoacetyl group and C-terminal an extra Cys-S-tBu (the Bromo group of the PNA reacts to the thiol group of the surface). After removal of the S-tBu (using NaBH4) of the Cys-S-tBu, the coupled PNA has a thiol group on C-terminal end. […]

monoclonal antibody-01 = assay: Spotted peptide constructs tested against monoclonal antibody-01, indirect fluorescence detection; format: binding; conditions: peptides spotted in 1 μl to 0.25 nl
Procedure: FIG. 2. A) Microturisation of spots of peptide constructs. Constructs were tested against the same monoclonal antibody-01 as was tested in FIG. 1. Binding was made visible using indirect fluorescence detection. Peptide 1, sequence with an N-terminal bromoacetamide, was synthesised on the complete surface. Peptide construct 6-1 is the same as construct 125 in FIG. 1. Peptides 2 up to 8, containing a cysteine residue, were spotted in different volumes ranging from 1 μl to 0.25 nl using piezo drop-on-demand technology. […] The identified epitope is shown in black. The disclosed peptide is shown in SEQ ID NO: 7.
The bromoacetamide peptide was covalently bound to a functionalised polypropylene/polyacrylic acid solid support in 3 μl wells as described above. The cysteine-containing sequences were synthesised on and cleaved from functionalised polyethylene pins as described above. […] On a surface of a solid support peptides are synthesized with a bromoacetamide group at the N-terminus as described above. […]

monoclonal antibody-03 = assay: Control test of peptide-covered surface with monoclonal antibody-03, indirect fluorescence detection; format: binding; conditions: peptide present on the whole square

Row | recognition / binding by monoclonal antibody-01 (monoclonal antibody-01) | Substance | binding of biotinylated DNA to the PNA construct [1] | recognition by monoclonal antibody-03 (monoclonal antibody-03)
1 | – | GAGGCCTGCTspacer ATGGCACTTC (PNA, spacer, thioether coupling to polypropylene surface, chemistry not fully specified) [PNA construct, construct of PNA1 and PNA2 coupled via thioether on polypropylene surface] | binding | –
2 | does not recognize | ADSLYTYPVATQ (BrAc-ADSLYTYPVATQ-NH2) | – | recognizes
